Experimental data reported in ChEMBL document CHEMBL5136975, “NO-HDAC dual inhibitors” (Eur J Med Chem, 2022).

Legend:
Format in all cases: functional
B104 [1] = assay: Antiproliferative activity against rat B104 cells assessed as cellular metabolic activity at 1 mM incubated for 24 hrs by resazurin assay
SK-N-SH [2] = assay: Antiproliferative activity against human SK-N-SH cells assessed as cellular metabolic activity at 1 mM incubated for 24 hrs by MTT assay
IMR-32 [3] = assay: Antiproliferative activity against human IMR-32 cells assessed as cellular metabolic activity at 1 mM incubated for 24 hrs by resazurin assay
B104 [4] = assay: Antiproliferative activity against rat B104 cells assessed as cellular metabolic activity at 1 mM incubated for 24 hrs by MTT assay
IMR-32 [5] = assay: Antiproliferative activity against human IMR-32 cells assessed as cellular metabolic activity at 1 mM incubated for 24 hrs by MTT assay
SK-N-SH [6] = assay: Antiproliferative activity against human SK-N-SH cells assessed as cellular metabolic activity at 1 mM incubated for 24 hrs by resazurin assay

## N[C@@H](CCC(=O)N[C@@H](CSN=O)C(=O)NCC(=O)O)C(=O)O [S-NITROSOGLUTATHIONE]
B104 [1]
  Activity: 17%
SK-N-SH [2]
  Activity: 16%
IMR-32 [3]
  Activity: 13%
B104 [4]
  Activity: 18%
IMR-32 [5]
  Activity: 14%
SK-N-SH [6]
  Activity: 15%
